One data set deals with E2 (Ubch5c) (Homo sapiens, UniProt P61077). In words: E2 ligase assay, E2 auto-ubiquitination. The class given is biochemical. Conditions: Table 2. How it is done: E2 (Ubch5c) auto-ubiquitination was measured as described in U.S. patent application Ser. No. 09/826,312 (Publication No. US-2002-0042083-A1), which is incorporated herein in its entirety. Details of the protocol are described below. Activity in the presence of the test compound was determined relative to a parallel control in which only DMSO was added. The IC50 values were typically determined using 6 or 8 different concentrations of compound, although as few as 2 concentrations may be used to approximate IC50 values.
E2 (Ubch5c), sequence (P61077 whole entry): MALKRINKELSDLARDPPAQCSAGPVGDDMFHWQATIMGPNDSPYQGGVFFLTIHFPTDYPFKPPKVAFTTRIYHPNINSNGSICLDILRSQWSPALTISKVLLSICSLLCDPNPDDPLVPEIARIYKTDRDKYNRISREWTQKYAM
Corning 96-well plates (Corning 3650) were blocked with 100 μl of Blocking Buffer for 1 hour at room temperature. The plates were washed for 4 times with 225 μl of 1×PBS and 80 μl of the reaction buffer were added that contained 100 ng/well of Flag-ubiquitin. To this, 10 μl of the test compound diluted in DMSO were added. After the test compound was added, 10 μl of E1 (human) and E2 (Ubch5c) in Protein Buffer were added to obtain a final concentration of 5 ng/well of E1 and 20 ng/well of E2. The plates were shaken for 10 minutes and incubated at room temperature for 1 hour. After incubation, the reaction was stopped by adding 25 μl of loading buffer (non-reducing) per well and the plates were heated at 95° C. for 5 minutes. An aliquot of each well was run on a 10% NugePage Gel and analyzed by Western Blot using the antibody mix and Lumino substrate described below. The luminescence was measured using a BMG luminescence microplate reader.

In data set [1] the test system is GADD45 promoter (DNA damage response reporter). In words: H1299 GADD45 reporter system. The data set is classed as cell-based. The following applies: human; p53 −ve cell type; maximal fold induction over DMSO control; read-out: Fold Induction, H1299GADD45. The text has this: (§1) Stable lines of U2OS (osteosarcoma; Wild-type p53 positive), HCT116 (colorectal carcinoma; Wild-type p53 positive) and H1299 (lung non-small cell carcinoma; p53 null) carrying p53-dependent transcriptional regulatory element linked to a Luciferase reporter gene and H1299 carrying a 5′-regulatory region of GADD45 linked to Luciferase were used.
(§2) Day 1: Cells were re-plated into 96-well plates at suitable densities to make 50-60% confluence on Day 2. The plating densities are as follows: 7.5×10^3 cells/well (or 2.5×10^4 cells/cm^2) for U2OS; 1.5×10^4 cells/well (or 5.0×10^4 cells/cm^2) for HCT116; and 1.0×10^4 cells/well (or 3.3×10^4 cells/cm^2) for H1299.
(§3) Day 2: The compounds or control drugs were diluted in dimethyl sulfoxide (DMSO) and added to the wells to create 6-points/2-fold serial dilution (20, 10, 5, 2.5, 1.25, 0.625 and 0 μM) for each compound. The DMSO concentration was adjusted to 0.2% in all wells.
(§4) Day 3: Twenty to 24 hours after compound addition, cells were twice washed with PBS and lysed with Glo-lysis buffer (100 μl/well, Promega; Cat#E2661). Plates were subjected to gentle agitation on a table-top shaker for 5 minutes at room temperature. Fifty μl of lysate was transferred to an assay plate to test for luciferase activity and mixed with 2× assay buffer (Promega; Cat# E1483). The reaction mixture was left at room temperature for 2 minutes and then luminescence was measure by a luminometer (Victor™, 1420 Multilabel Counter, Wallac).
(§5) Data analysis was done on Excel software (Microsoft). Values in Table 4 represent maximal fold induction over negative control (DMSO only) and are the mean of at least duplicate experiments.
H1299 GADD45 Reporter System is a system in which GADD45 is induced in p53-null cells in response to DNA damage. This cell line expresses the 5′-regulatory region of the GADD45 gene. This assay provides a way to rule out the possibility of DNA damage due to the compounds.

Data set [2] concerns p53 reporter system in p53 null H1299 cell line. Kind of data set: p53-dependent transcription reporter assay, H1299RE. The data set is classed as cell-based. The following applies: p53 −ve cell type; maximal fold induction over DMSO control.
Text: as §1, §2, §3, §4, §5
H1299RE is p53 null […] cell line containing p53 reporter system. Numbers indicate the selectivity of the compound with smaller number being higher selectivity.

For another data set, the target named is E1 and E2 (UBCH5a) (Homo sapiens, UniProt P22314+P51668). Kind of data set: E1/E2 plate enzyme counter assay. The data set is classed as biochemical. Conditions: Table 3, counter assay. The text has this: E1/E2 is E1 and E2 (UBCH5a) enzyme counter assay.

One may read the IC50 as the concentration that gives 50% inhibition. Regarding `COc1cccc(-c2csc(N(Cc3ccc(C(=O)N4CCNCC4)cc3)Cc3cccc(OC(F)(F)F)c3)n2)c1` [compound 351], the IC50 against E2 (Ubch5c) was no less than 20 µM. For the same molecule, the fold induction in data set [1] was no more than 1.5. In data set [2], the “Fold Induction of p53 activity, H1299RE” value was “c (c means 1.5 or less)”.
`COc1cccc(-c2csc(N(CCOc3ccccc3)Cc3ccc(C(=O)N4CCNCC4)cc3)n2)c1` [compound 352] registered an IC50 at E2 (Ubch5c) of no less than 20 µM. The fold induction in data set [1] was no more than 1.5. The “Fold Induction of p53 activity, H1299RE” value in data set [2] is recorded as “c (c means 1.5 or less)”.
The like results for `COc1cccc(CN(Cc2ccc(C(=O)N3CCNCC3)cc2)c2nc(-c3ccc(Br)cc3)cs2)c1OC` [compound 353] were, in that order, no less than 20 µM, no more than 1.5 and “c (c means 1.5 or less)”.
On to `O=C(c1ccc(CN(CCOc2ccccc2)c2nc(-c3ccc(Cl)c(Cl)c3)cs2)cc1)N1CCNCC1` [compound 360], for which the “E1/E2 plate μM” value on E1 and E2 (UBCH5a) is “+ (+ means 20 μM or greater)”. This molecule showed a half-maximal inhibitory concentration (IC50) on E2 (Ubch5c) of no less than 20 µM. Moreover, in data set [1], the fold induction was no more than 1.5. Also, the “Fold Induction of p53 activity, H1299RE” value in data set [2] is “c (c means 1.5 or less)”.
